From patent publication US8455510B2
Read-outs that look alike come from different tables or passages of the source.

Key:
[1] = test system: human rhabdomyosarcoma RH-30 xenograft; assay: RH-30 xenograft on nude mice; conditions: for TV (mm^3) d0: baseline;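 on all read-outs here: male BALB/cA nude mice with subcutaneous RH-30 tumors, oral dosing versus solvent-fed controls, caliper tumor volume, RTV relative to grouping day, T/C as treated RTV over control RTV ×100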
Excerpt: Animals: BALB/cA nude mice, male, 40-45 days old, body weight: 21±2 g, provided by Shanghai Institute of Materia Medica, Chinese Academy of Sciences. License No.: SCXK (Shanghai) 2004-0002. Animal number in each group: 6 in negative control group, and 6 in administration group.
The amount of inoculated cells was 5×10^6. After the xenograft was formed by inoculation, it was used after passed for 3 generations in nude mice.

[2] = in vivo; type: in vivo; conditions: nude, mouse, in vivo
[3] = Immunosuppressive activity assay: cytotoxicity; type: cell-based
[4] = test system: SRBC-induced specific antibody-producing cells in spleen lymphocytes; assay: Quantitative hemolysis of sheep red blood cells (QHS) assay; type: in vivo, BALB/c mice; conditions: 1.5 mg/kg, intraperitoneal injection
Excerpt: It is a classic experimental method to determine the generation of antigen-specific antibody with SRBC hemolytic reaction in SRBC-induced mouse humoral immunity model. The quantitative hemolysis of sheep red blood cells (QHS) assay is an experimental method for evaluating the amount of the antibody secreted, which is based on the principle that the sheep red blood cells are hemolyzed by the anti-SRBC specific antibody secreted by B lymphocytes (plasma cells) to release haemoglobin. After mice are sensitized by sheep red blood cells (SRBC), there will appear cells which can secrete specific antibody in mouse spleen lymphocytes. The Antibody secreted by such cells could hemolyze SRBC with the synergistic action of the complement. Therefore, the amount of the cells secreting the specific antibody can be evaluated by determining the hemolytic degree by spectrophotometry. […] BALB/c mice were randomly divided into 5 groups with 6 mice in each group. […] When immunized, the mice in each group were administered by intraperitoneal injection once daily until 5 days after the immunization. The mice in model control group were administered daily with the solvent. 2. […] Each mice was introperitoneally injected with 0.2 ml of the diluted SRBC for sensitizing. 3. QHS assay was carried out 5 days after the sensitization: The mouse spleen was collected to produce the spleen lymphocytes. […] The mixture was kept at 37° C. for 1 hour, and then centrifugated at 3000 rpm for 10 min. […] The quantitative hemolysis of sheep red blood cells (QHS) assay uses the amount of haemoglobin (OD value) released from the hemolysis of red blood cells by the antibody secreted by B cells to indicate the level of humoral immunity in body. Inhibition of specific antibody-secreting cells %=(OD of model control group-OD of administration group)/(OD of model control group-OD of normal control group)

[5] = test system: DNFB-induced delayed type hypersensitivity reaction; assay: DNFB-induced delayed type hypersensitivity reaction in mice; type: in vivo, BALB/c mice; conditions: 1.5 mg/kg/d, intraperitoneal injection; model control 0.175 mm
Protocol: The delayed type hypersensitivity (DTH) reaction in mice was induced by DNFB to evaluate the inhibition effect of the compound on DTH in vivo. […] Preparation method: the compound was dissolved in anhydrous alcohol to prepare a stock solution (50 mg/ml), which was diluted to the desired concentration when use by using a solution of 5% PEG400, 5% Tween-80 in sterile water as a solvent. […] DNFB combined with dermal protein to form a complete antigen after sensitizing on feet of mice. One week later, mice were attacked by DNFB on ears to induce a local delayed allergic reaction, i.e., the delayed type hypersensitivity reaction to cause ear swelling, while the delayed type hypersensitivity reaction would not be observed on the ear which had not been attacked. Therefore, the ear swelling can reflect the level of the delayed type hypersensitivity reaction in mice induced by DNFB. (1) 20 μl of 0.5% DNFB solution in a mixture of acetone and olive oil (4:1) as a solvent was applied on both hind legs of mice for sensitization. […] (4) Thickness of the left and right ears of the mice was measured by a micrometer screw gauge, and the swelling was calculated by subtracting the thickness of the left ear from thickness of the right ear.

[6] = test system: normal mouse spleen B lymphocytes induced by LPS; assay: 3H-TdR incorporation, LPS-induced B lymphocyte proliferation; type: cell-based, BALB/c mice; conditions: read-out: IC50, proliferation of B lymphocytes induced by LPS
Protocol: (§1) ^3H-thymidine incorporation was adopted to measure the effect of the in vitro administered compound on the proliferation function of the spleen lymphocytes of normal mice induced by a mixed culture of mitogen/allogeneic mouse spleen lymphocytes, and evaluate the in vitro immunosuppressive activity of the compound.
(§2) Measurement of the effects of compounds on the proliferation function of mouse spleen lymphocytes induced by mitogen by ^3H-TdR incorporation: 100 μl cell suspension of mouse spleen lymphocytes was inoculated on a 96-well plate (4×10^5 per well), followed by addition of 50 μl of ConA (final concentration: 5 μg/ml), 50 μl of LPS (final concentration: […]) or 50 μl of compound at different concentrations. The total volume of each well was 200 μl. The test was carried out in triplicate wells for each concentration, and included control wells without ConA/LPS or the compound. After the 96-well plate was placed in an incubator at 37° C. with 5% CO2 for 48 hours, 25 μl of ^3H-thymidine (10 μCi/ml) was added in each well 8 hours before the end of incubation. […] The amount of ^3H-TdR incorporated in cell DNA was determined by a Beta cell counter (MicroBeta Trilux, PerkinElmer), and the cell proliferation was represented as a cpm value.

[7] = test system: normal mouse spleen T lymphocytes induced by ConA; assay: 3H-TdR incorporation, ConA-induced T lymphocyte proliferation; type: cell-based, BALB/c mice; conditions: read-out: IC50, proliferation of T lymphocytes induced by ConA
Protocol: as §1, §2

[8] = Table 2, 5 mg/kg p.o, 1-5 × 3 w
[9] = Table 2, 10 mg/kg p.o, 1-5 × 3 w

Structure (SMILES): CO[C@H]1C[C@@H]2CC[C@@H](C)[C@@](O)(O2)C(=O)C(=O)N2CCCC[C@H]2C(=O)O[C@H]([C@H](C)C[C@@H]2CC[C@@H](O)[C@H](OC)C2)CC(=O)[C@H](C)/C=C(\C)[C@@H](O)[C@@H](OC)C(=O)[C@H](C)C[C@H](C)/C=C/C=C/C=C/1C [Rapamycin]
- Body Weight (g) end [1, 8]: 27.0 g
- Body Weight (g) start [1, 8]: 23.7 g
- RTV [1, 8]: 5.5 ± 1.8
- T/C (%) [1, 8]: 61.8%
- TV (mm^3) d21 [1, 8]: 650 ± 326 mm^3
- TV (mm^3) d0 [1, 8]: 124 ± 65 mm^3
- Body Weight (g) end [1, 9]: 25.7 g
- Body Weight (g) start [1, 9]: 23.3 g
- RTV [1, 9]: 3.1 ± 0.7
- T/C (%) [1, 9]: 35.7%
- TV (mm^3) d0 [1, 9]: 136 ± 57 mm^3
- Body Weight (g) end ([1]; Table 4, 2.5 mg/kg po, 1-5/2 w): 21.8 g
- Body Weight (g) start ([1]; Table 4, 2.5 mg/kg po, 1-5/2 w): 20.2 g
- RTV ([1]; Table 4, 2.5 mg/kg po, 1-5/2 w): 2.8 ± 0.8
- T/C (%) ([1]; Table 4, 2.5 mg/kg po, 1-5/2 w): 63.7%
- TV (mm^3) d14 ([1]; Table 4, 2.5 mg/kg po, 1-5/2 w): 440 ± 157 mm^3
- TV (mm^3) d0 ([1]; Table 4, 2.5 mg/kg po, 1-5/2 w): 164 ± 67 mm^3
- Body Weight (g) end ([1]; Table 4, 5 mg/kg po, 1-5/2 w): 20.3 g
- Body Weight (g) start ([1]; Table 4, 5 mg/kg po, 1-5/2 w): 19.8 g
- RTV ([1]; Table 4, 5 mg/kg po, 1-5/2 w): 2.4 ± 1.0
- T/C (%) ([1]; Table 4, 5 mg/kg po, 1-5/2 w): 54.4%
- TV (mm^3) d14 ([1]; Table 4, 5 mg/kg po, 1-5/2 w): 362 ± 100 mm^3
- TV (mm^3) d0 ([1]; Table 4, 5 mg/kg po, 1-5/2 w): 159 ± 32 mm^3
- AUC0-t (ng · h/g or ng · h/ml) [2]: 1455 ng·h/mL
- Sirolimus concentration, Liver, Mean Value ([2]; 0.5 h): 473 ng/g
- Sirolimus concentration, Tumor, Mean Value ([2]; 0.5 h): 20.6 ng/g
- Sirolimus concentration, Blood Plasma, Mean Value ([2]; 2 h): 121 ng/mL
- Sirolimus concentration, Liver, Mean Value ([2]; 2 h): 193 ng/g
- Sirolimus concentration, Tumor, Mean Value ([2]; 2 h): 50.8 ng/g
- Sirolimus concentration, Blood Plasma, Mean Value ([2]; 5 h): 84.7 ng/mL
- Sirolimus concentration, Liver, Mean Value ([2]; 5 h): 139 ng/g
- Sirolimus concentration, Tumor, Mean Value ([2]; 5 h): 41.7 ng/g
- Sirolimus concentration, Liver, Mean Value ([2]; 12 h): 54.2 ng/g
- Sirolimus concentration, Tumor, Mean Value ([2]; 12 h): 33.2 ng/g
- Sirolimus concentration, Blood Plasma, Mean Value ([2]; 48 h): 4.04 ng/mL
- Sirolimus concentration, Liver, Mean Value ([2]; 48 h): 15.8 ng/g
- Sirolimus concentration, Tumor, Mean Value ([2]; 48 h): 25.9 ng/g
- CC50 ([3]; Table 10, value beyond the >100 μM bound, read-out: Cytotoxicity CC50, value in brackets): 3600 µM
- CC50 ([3]; Table 10, read-out: Cytotoxicity CC50): > 100 µM
- Inhibition of Specific Antibody-secreting cells % [4]: 100%
- Quantitative hemolysis OD Value ([4]; model control 0.3887, normal control 0.3036): 0.3012
- average ear swelling degree [5]: 0.076 mm
- IC50 [6]: 0.0488 µM
- IC50 [7]: 0.196 µM
